From patent US11931365B2, “Use of PPAR-delta agonists in the treatment of disease” (Reneo Pharmaceuticals, Inc., priority 2022, dated 2024)
Read-outs that look alike come from different tables or passages of the source. Each block holds one compound with its values, some of them ahead of it.

Experiments:
[1] = test system: VLCAD deficient cell line FB833; conditions: FB833 cells; WO18093839; cited from earlier work
[2] = test system: healthy male volunteers, leg immobilization; test: Phase 1 placebo-controlled study in healthy volunteers with single limb immobilization; assay type: in vivo, human; design: Change from baseline in muscle strength, mean: unit not given beside the values
Experimental: In a prior clinical trial in healthy volunteers, Compound I was administered at dose of 100 mg twice daily for 28 days in healthy volunteers during and after a single limb immobilization (see NCT01524406). The study was conducted to evaluate the impact of Compound I on the recovery of muscle atrophy from leg immobilization, and improvements in cross section area (CSA) and muscle strength parameters expected in patients treated with study drug compared to those given placebo.
This phase 1, randomized, parallel group, placebo-controlled study was conducted at 2 centers in the United States. Fifty participants were planned for enrollment, 25 per group; participants could be replaced upon sponsor approval.
Screening was conducted 28 days before study start; eligibility was reviewed again at prespecified times during the study. Ambulatory, non-smoking, healthy male volunteers 30 to 55 years of age with a Body Mass Index (BMI) from 18 to 30 kg/m2 were recruited for the study. Key exclusion criteria included abnormal laboratory values at screening, a recent history of body weight fluctuations, positive urine drug screens, drug dependency or illicit drug use, professional sport participation within 30 days of screening, donation of whole blood within 90 days of dosing, and donation of plasma within 30 days of dosing. Concomitant medications within 14 days of dosing were not allowed unless approved by the sponsor. Those who had enrolled in another clinical trial within 90 days or had previously received Compound II were not allowed to participate.
Participants were randomly assigned 1:1 to receive either Compound II (100 mg BID) or matching placebo for 28 days using a computer generated randomization schedule provided by the sponsor. The principal investigator, study center staff, and participants were blinded to treatment; the protocol was amended so that sponsor personnel were not blinded. This change was made to allow investigation of observations concerning adherence to the protocol, discussed further in the pharmacodynamic results. Compound II and placebo were provided as capsules identical in appearance, taken orally with 240 ml of water prior to meals. Study drug was administered at the study site on Days 1 (PM dose), 6 (AM dose), 13 (PM dose), and 14, 15, 16, 29 (AM doses). At all other times study drug was self-administered just before breakfast and dinner. Dates and times were recorded in a diary, with compliance determined from the diaries and capsule counts. Study drug supplies were packaged according to the randomization codes by a contract research organization. Each dispensed bottle was labeled with the randomization number. Individual capsules were re-dispensed from these bottles by the study site staff, maintaining the blind. The total study duration for each subject was 42 days. Participants stayed overnight from Day 1 and Days 13 to 16.
Standardized meals, beverages and snacks were provided during the domicile periods. On Day 1, participants were leg-immobilized using a knee brace with […] on the left leg to allow driving. Walking crutches were provided to prevent weight bearing on the immobilized leg. An accelerometer was issued at screening and was used to count the number of steps per day. Participants were to walk 4000 to 6000 steps each day for the duration of the leg immobilization period, and recorded accelerometer readings each evening before bedtime. The brace was removed on Day 14, and participants resumed normal physical activity gradually from Days 16 to 29. After stopping study drug on Day 29, participants were to resume regular daily activity gradually for another 2 weeks. Consumption of prescribed medications or over the counter products was prohibited from 14 days prior to dosing and throughout the study, with the exception of the treatment of an adverse event. Participants were not to consume alcohol or caffeine containing food and beverages 3 days before each study visit and domicile periods. […]

[3] = Gravimetric Vapor Sorption (GVS); assay type: physicochemical; conditions: 25° C., w/w
Experimental: Sorption isotherms were obtained using a SMS DVS Intrinsic moisture sorption analyzer, controlled by DVS Intrinsic Control software. The sample temperature was maintained at 25° C. by the instrument controls. The humidity was controlled by mixing streams of dry and wet nitrogen, with a total flow rate of 200 ml/min. The relative humidity was measured by a calibrated Rotronic probe (dynamic range of 1.0-100% RH), located near the sample. The weight change, (mass relaxation) of the sample as a function of % RH was constantly monitored by a microbalance (accuracy ±0.005 mg).
Typically, 5-30 mg of sample was placed in a tared mesh stainless steel basket under ambient conditions. The sample was loaded and unloaded at 40% RH and 25° C. (typical room conditions). A moisture sorption isotherm was performed as outlined below (2 scans per complete cycle). The standard isotherm was performed at 25° C. at 10% RH intervals over a 0-90% RH range. Typically, a double cycle (4 scans) was carried out. Data analysis was carried out within Microsoft Excel using the DVS Analysis Suite.

[4] = XRPD re-analysis after GVS isotherm; assay type: physicochemical; conditions: after isotherm at 90% RH and 25° C.
Experimental: The samples were recovered after completion of the isotherm experiment at 90% RH and 25° C. and re-analyzed by XRPD.

[5] = Stability of solid state forms (storage, drying), XRPD; assay type: physicochemical; conditions: for XRPD after static storage: 40° C./75% RH for 10 days; for XRPD after ambient storage: 24 hours, 48 hours, 7 days, or 10 days
Experimental: Samples were assessed for stability under ambient or static storage conditions of 25° C./[…] and 40° C./75% RH for 7 or 10 days. The samples were then re-analyzed by XRPD. Subsequent XRPD analysis results for the crystalline forms are described below: […]

mice = conditions: cited from earlier work; for oxidative muscle fibers (and mitochondrial biogenesis) / physical performance / running endurance: combined with exercise
CPT2-deficient myoblasts = conditions: Djouadi 2005; cited from earlier work
[6] = listed as crystalline Pattern 9 of Compound II
[7] = listed as crystalline Form 2 of Compound II
[8] = listed as crystalline Form 3 of Compound II
[9] = listed as amorphous Compound II

Structure (SMILES): Cc1cc(SCc2sc(-c3ccc(C(F)(F)F)c(F)c3)nc2C)ccc1OCC(=O)O [GW0742, [4-[[[2-[3-Fluoro-4-(trifluoromethyl)phenyl]-4-methyl-5-thiazolyl]methyl]thio]-2-methylphenoxy]acetic acid]
- VLCAD enzyme activity [1]: increase

Structure (SMILES): Cc1cc(OC/C=C(/c2ccc(F)cc2)c2ccc(C#CCN3CCOCC3)cc2)ccc1OCC(=O)[O-].[Na+] [Compound II, sodium (E)-2-(4-((3-(4-fluorophenyl)-3-(4-(3-morpholinoprop-1-yn-1-yl)phenyl)allyl)oxy)-2-methylphenoxy)acetate]
- participants discontinued due to an adverse event of elevated CK ([2]; 100 mg BID): 8.3%
- Change from baseline in muscle strength, mean ([2]; Day 14, 100 mg BID): −5.86
- Change from baseline in muscle strength, mean ([2]; Day 21, 100 mg BID): 32.82
- Change from baseline in muscle strength, mean ([2]; Day 29, 100 mg BID): 25.58
- Change from baseline in muscle strength, mean ([2]; Day 42, 100 mg BID): 37.96
- increase from baseline in PDK4, ANGPTL4 and SLC25A34 expression ([2]; muscle biopsies, from Day 14): up to 3.5 fold

- Reversible Water Uptake between 0-90% RH [3]: ~27%
- Reversible Water Uptake between 0-90% RH [3, 6]: ~27%
- Solid State Form After GVS (XRPD) [4]: Unchanged (Pattern 9)
- Solid State Form After GVS (XRPD) [4, 6]: unchanged
Structure (SMILES): Cc1cc(OC/C=C(/c2ccc(F)cc2)c2ccc(C#CCN3CCOCC3)cc2)ccc1OCC(=O)[O-].[Na+] [Pattern 9, sodium (E)-2-(4-((3-(4-fluorophenyl)-3-(4-(3-morpholinoprop-1-yn-1-yl)phenyl)allyl)oxy)-2-methylphenoxy)acetate]

- XRPD form after storage ([5]; 25° C./97% RH/7 days): Unchanged (Form 2)
- XRPD form after storage ([5]; 25° C./97% RH/7 days, listed as crystalline Form 2 of Compound II): unchanged
- XRPD form after storage ([5]; 40° C./75% RH/7 days): Unchanged (Form 2)
- XRPD form after storage ([5]; 40° C./75% RH/7 days, listed as crystalline Form 2 of Compound II): unchanged
- Reversible Water Uptake between 0-90% RH [3]: ~25%
- Reversible Water Uptake between 0-90% RH [3, 7]: ~25%
- Solid State Form After GVS (XRPD) [4]: Unchanged (Form 2)
- Solid State Form After GVS (XRPD) [4, 7]: unchanged
Structure (SMILES): Cc1cc(OC/C=C(/c2ccc(F)cc2)c2ccc(C#CCN3CCOCC3)cc2)ccc1OCC(=O)[O-].[Na+] [Form 2, sodium (E)-2-(4-((3-(4-fluorophenyl)-3-(4-(3-morpholinoprop-1-yn-1-yl)phenyl)allyl)oxy)-2-methylphenoxy)acetate]

- stability of the solid form [5]: unstable
Structure (SMILES): Cc1cc(OC/C=C(/c2ccc(F)cc2)c2ccc(C#CCN3CCOCC3)cc2)ccc1OCC(=O)[O-].[Na+] [Pattern 5, sodium (E)-2-(4-((3-(4-fluorophenyl)-3-(4-(3-morpholinoprop-1-yn-1-yl)phenyl)allyl)oxy)-2-methylphenoxy)acetate]

- XRPD form after storage ([5]; 40° C./75% RH/7 days): Form 1
- XRPD form after storage ([5]; 40° C./75% RH/7 days, listed as crystalline Form 3 of Compound II): converts to Form 1
- form change on drying [5]: converts to Form 1
- form change on standing ([5]; standing in ambient conditions): converts to Form 1
- Reversible Water Uptake between 0-90% RH [3]: ~9.0%
- Reversible Water Uptake between 0-90% RH [3, 8]: ~9.0%
- Solid State Form After GVS (XRPD) [4]: Form 1
- Solid State Form After GVS (XRPD) [4, 8]: converts to Form 1
Structure (SMILES): Cc1cc(OC/C=C(/c2ccc(F)cc2)c2ccc(C#CCN3CCOCC3)cc2)ccc1OCC(=O)[O-].[Na+] [Form 3, sodium (E)-2-(4-((3-(4-fluorophenyl)-3-(4-(3-morpholinoprop-1-yn-1-yl)phenyl)allyl)oxy)-2-methylphenoxy)acetate]

Structure (SMILES): CCCc1c(OCCCOc2ccc(OCC(=O)O)cc2)ccc(C(C)=O)c1O [L-165,0411, [4-[3-(4-Acetyl-3-hydroxy-2-propylphenoxy)propoxy]phenoxy]acetic acid]
- VLCAD enzyme activity [1]: increase

- form change on drying [5]: converts to Form 1
- Reversible Water Uptake between 0-90% RH [3]: ~11%
- Solid State Form After GVS (XRPD) [4]: Form 1
- Solid State Form After GVS (XRPD) ([4]; listed as crystalline Form 5 of Compound II): converts to Form 1
Structure (SMILES): Cc1cc(OC/C=C(/c2ccc(F)cc2)c2ccc(C#CCN3CCOCC3)cc2)ccc1OCC(=O)[O-].[Na+] [Form 5, sodium (E)-2-(4-((3-(4-fluorophenyl)-3-(4-(3-morpholinoprop-1-yn-1-yl)phenyl)allyl)oxy)-2-methylphenoxy)acetate]

Structure (SMILES): Cc1cc(SCc2sc(-c3ccc(C(F)(F)F)cc3)nc2C)ccc1OCC(=O)O [GW501516, 2-[2-Methyl-4-[[[4-methyl-2-[4-(trifluoromethyl)phenyl]-5-thiazolyl]methyl]thio]phenoxy]acetic acid]
- VLCAD enzyme activity [1]: increase
- energy substrate usage (mice; 8 weeks): clear shift in energy substrate usage from glucose to fatty acid oxidation
- oxidative muscle fibers (and mitochondrial biogenesis) (mice; listed as GW1516): synergistically induced
- physical performance / running endurance (mice; listed as GW1516): enhanced
- oxidative muscle fibers (and mitochondrial biogenesis) (mice): increase
- physical performance / running endurance (mice): enhance

- XRPD after static storage [5, 9]: unchanged
- XRPD after static storage ([5]; listed as amorphous solid form): no change
- XRPD after ambient storage [5, 9]: unchanged
- XRPD after ambient storage ([5]; listed as amorphous solid form): no change
Structure (SMILES): Cc1cc(OC/C=C(/c2ccc(F)cc2)c2ccc(C#CCN3CCOCC3)cc2)ccc1OCC(=O)[O-].[Na+] [amorphous, sodium (E)-2-(4-((3-(4-fluorophenyl)-3-(4-(3-morpholinoprop-1-yn-1-yl)phenyl)allyl)oxy)-2-methylphenoxy)acetate]

- form change on drying [5]: converts to Form 1
Structure (SMILES): Cc1cc(OC/C=C(/c2ccc(F)cc2)c2ccc(C#CCN3CCOCC3)cc2)ccc1OCC(=O)[O-].[Na+] [Pattern 8, sodium (E)-2-(4-((3-(4-fluorophenyl)-3-(4-(3-morpholinoprop-1-yn-1-yl)phenyl)allyl)oxy)-2-methylphenoxy)acetate]

Structure (SMILES): CC(C)(Sc1ccc(CCN(CCCCC2CCCCC2)C(=O)NC2CCCCC2)cc1)C(=O)O [GW 7647]
- FAO (CPT2-deficient myoblasts): had no effect
